Consider seven cell lines from the supplement of paper PMC10307832.

Experiment in all cases: relative viability (nuclei count vs DMSO), 5 days (fraction); higher = more cells survive
Compound in experiment [1]: O=c1ncccn1[C@@H]1O[C@H](CO)[C@@H](O)[C@H]1O [Zebularine] + Cc1nc(NC(=O)N2CCC[C@H]2C(N)=O)sc1-c1ccnc(C(C)(C)C(F)(F)F)c1 [Alpelisib] (partner 2 µM)
The gist of the method: (§1)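 Medians of duplicate plates are given as relative viability. That measure is the nuclei count in treated wells divided by the count in vehicle wells. Counts were taken on 4× images of lung cancer cell lines in 1536-well plates, 5 days after pin-tool dosing the day after seeding with one drug alone or a fixed anchor-drug dose plus five library-drug doses (not always all listed) in √10 steps.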

Compound in experiment [2]: O=c1ncccn1[C@@H]1O[C@H](CO)[C@@H](O)[C@H]1O [Zebularine] + CS(=O)(=O)CCNCc1ccc(-c2ccc3ncnc(Nc4ccc(OCc5cccc(F)c5)c(Cl)c4)c3c2)o1 [Lapatinib] (partner 2 µM)
The gist of the method:
as §1

Compound in experiment [3]: CC(C)CCN1c2nc(Nc3cc(F)c(O)c(F)c3)ncc2N(C)C(=O)C1C [BI-D1870] + Nc1ncn([C@H]2C[C@H](O)[C@@H](CO)O2)c(=O)n1 [Decitabine] (partner 2 µM)
The gist of the method:
as §1

Compound in experiment [4]: CC(C)CCN1c2nc(Nc3cc(F)c(O)c(F)c3)ncc2N(C)C(=O)C1C [BI-D1870] + O=C(CCCCCCC(=O)Nc1ccccc1)NO [Vorinostat] (partner 1 µM)
The method, boiled down: as §1

For the cell line NCI-H3122, the relative viability was 0.991 in experiment [1] (first compound 1 µM); 0.822 in experiment [1] (first compound 3.162 µM); 0.573 in experiment [1] (first compound 10 µM); 0.871 in experiment [1] (first compound 31.62 µM); 0.703 in experiment [1] (first compound 100 µM); 1.12 in experiment [2] (first compound 1 µM). Also, the relative viability came out at 1.05 in experiment [2] (first compound 3.162 µM); 0.911 in experiment [2] (first compound 10 µM); 1.04 in experiment [2] (first compound 31.62 µM); 1.05 in experiment [2] (first compound 100 µM); 0.51 in experiment [3] (first compound 0.04 µM); 0.333 in experiment [3] (first compound 0.1265 µM). The relative viability in experiment [3] (first compound 0.4 µM) was 0.478; in experiment [3] (first compound 1.265 µM) it was 0.427; in experiment [3] (first compound 4 µM), 0.508; in experiment [4] (first compound 0.04 µM) it was 1.05; in experiment [4] (first compound 0.1265 µM), 0.633; in experiment [4] (first compound 0.4 µM), 0.858. Further, the values for the relative viability in experiment [4] (first compound 1.265 µM) and in experiment [4] (first compound 4 µM) were 1.21 and 0.998, respectively.
As to PC-3 [JPC-3], the relative viability in experiment [1] (first compound 1 µM) was found to be 1.09; in experiment [1] (first compound 3.162 µM) it was 0.948; in experiment [1] (first compound 10 µM), 0.748; in experiment [1] (first compound 31.62 µM), 0.824; in experiment [1] (first compound 100 µM) it was 0.469; in experiment [2] (first compound 1 µM), 0.479. Moreover, the relative viability in experiment [2] (first compound 3.162 µM) was found to be 0.471; in experiment [2] (first compound 10 µM) it was 0.412; in experiment [2] (first compound 31.62 µM), 0.482; in experiment [2] (first compound 100 µM), 0.411; in experiment [3] (first compound 0.04 µM), 0.867; in experiment [3] (first compound 0.1265 µM) it was 0.867. In addition, the relative viability was 0.849 in experiment [3] (first compound 0.4 µM); 0.944 in experiment [3] (first compound 1.265 µM); 0.728 in experiment [3] (first compound 4 µM); 0.817 in experiment [4] (first compound 0.04 µM); 0.795 in experiment [4] (first compound 0.1265 µM); 0.81 in experiment [4] (first compound 0.4 µM). The relative viability in experiment [4] (first compound 1.265 µM) came to 0.625; in experiment [4] (first compound 4 µM), 0.394.
For the cell line PC-14, the relative viability in experiment [1] (first compound 1 µM) came to 1.04; in experiment [1] (first compound 3.162 µM), 0.953; in experiment [1] (first compound 10 µM) it was 0.232; in experiment [1] (first compound 31.62 µM) it was 0.111; in experiment [1] (first compound 100 µM), 0.163; in experiment [2] (first compound 1 µM), 0.448. The relative viability in experiment [2] (first compound 3.162 µM) was 0.296; in experiment [2] (first compound 10 µM) it was 0.201; in experiment [2] (first compound 31.62 µM), 0.163; in experiment [2] (first compound 100 µM), 0.126; in experiment [3] (first compound 0.04 µM), 0.203; in experiment [3] (first compound 0.1265 µM), 0.148. Moreover, the relative viability in experiment [3] (first compound 0.4 µM) is 0.278; in experiment [3] (first compound 1.265 µM), 0.198; in experiment [3] (first compound 4 µM), 0.223; in experiment [4] (first compound 0.04 µM) it was 0.825; in experiment [4] (first compound 0.1265 µM) it was 0.625; in experiment [4] (first compound 0.4 µM), 0.58. The figures for the relative viability in experiment [4] (first compound 1.265 µM) and in experiment [4] (first compound 4 µM) were 0.699 and 0.569, respectively.
Turning to RERF-LC-KJ, the relative viability amounted to 0.93 in experiment [1] (first compound 1 µM); 0.859 in experiment [1] (first compound 3.162 µM); 0.611 in experiment [1] (first compound 10 µM); 1.03 in experiment [1] (first compound 31.62 µM); 0.753 in experiment [1] (first compound 100 µM); 0.901 in experiment [2] (first compound 1 µM). Further, the relative viability came out at 0.946 in experiment [2] (first compound 3.162 µM); 0.92 in experiment [2] (first compound 31.62 µM); 0.863 in experiment [2] (first compound 100 µM); 0.661 in experiment [3] (first compound 0.04 µM); 0.671 in experiment [3] (first compound 0.1265 µM); 0.675 in experiment [3] (first compound 0.4 µM). Besides, the relative viability stood at 0.745 in experiment [3] (first compound 1.265 µM); 0.519 in experiment [3] (first compound 4 µM); 0.66 in experiment [4] (first compound 0.04 µM); 0.633 in experiment [4] (first compound 0.1265 µM); 0.669 in experiment [4] (first compound 0.4 µM); 0.642 in experiment [4] (first compound 1.265 µM). Further, the relative viability in experiment [4] (first compound 4 µM) was found to be 0.47.
Turning to SK-LU-1, the relative viability in experiment [1] (first compound 1 µM) amounted to 1.2; in experiment [1] (first compound 3.162 µM), 0.875; in experiment [1] (first compound 10 µM), 0.66; in experiment [1] (first compound 31.62 µM) it was 0.745; in experiment [1] (first compound 100 µM), 0.468; in experiment [2] (first compound 1 µM), 0.896. The relative viability in experiment [2] (first compound 3.162 µM) was determined as 0.9; in experiment [2] (first compound 10 µM), 0.545; in experiment [2] (first compound 31.62 µM) it was 0.676; in experiment [2] (first compound 100 µM), 0.448; in experiment [3] (first compound 0.04 µM), 0.653; in experiment [3] (first compound 0.1265 µM), 0.607. Also, the relative viability in experiment [3] (first compound 0.4 µM) is 0.652; in experiment [3] (first compound 1.265 µM), 0.604; in experiment [3] (first compound 4 µM), 0.536; in experiment [4] (first compound 0.04 µM), 0.823; in experiment [4] (first compound 0.1265 µM), 0.615; in experiment [4] (first compound 0.4 µM), 0.71. For the same cell line, the results for the relative viability in experiment [4] (first compound 1.265 µM) and in experiment [4] (first compound 4 µM) were 0.625 and 0.35, respectively.
Regarding SK-MES-1, the relative viability was 0.902 in experiment [1] (first compound 1 µM); 1.01 in experiment [1] (first compound 3.162 µM); 0.596 in experiment [1] (first compound 10 µM); 0.575 in experiment [1] (first compound 31.62 µM); 0.345 in experiment [1] (first compound 100 µM); 0.484 in experiment [2] (first compound 1 µM). Further, the relative viability stood at 0.435 in experiment [2] (first compound 3.162 µM); 0.397 in experiment [2] (first compound 10 µM); 0.427 in experiment [2] (first compound 31.62 µM); 0.269 in experiment [2] (first compound 100 µM); 0.395 in experiment [3] (first compound 0.04 µM); 0.337 in experiment [3] (first compound 0.1265 µM). Also, the relative viability in experiment [3] (first compound 0.4 µM) is 0.332; in experiment [3] (first compound 1.265 µM) it was 0.395; in experiment [3] (first compound 4 µM) it was 0.304; in experiment [4] (first compound 0.04 µM) it was 1.16; in experiment [4] (first compound 0.1265 µM), 0.905; in experiment [4] (first compound 0.4 µM), 0.933. The values for the relative viability in experiment [4] (first compound 1.265 µM) and in experiment [4] (first compound 4 µM) were 0.949 and 0.691, respectively.
Regarding SW 1573, the relative viability stood at 0.728 in experiment [1] (first compound 1 µM); 0.792 in experiment [1] (first compound 3.162 µM); 0.448 in experiment [1] (first compound 10 µM); 0.743 in experiment [1] (first compound 31.62 µM); 0.646 in experiment [1] (first compound 100 µM); 1.24 in experiment [2] (first compound 1 µM). For the same cell line, the relative viability in experiment [2] (first compound 3.162 µM) was 0.773; in experiment [2] (first compound 10 µM), 0.502; in experiment [2] (first compound 31.62 µM), 1.23; in experiment [2] (first compound 100 µM), 0.873; in experiment [3] (first compound 0.04 µM) it was 0.653; in experiment [3] (first compound 0.1265 µM) it was 0.497. Further, the relative viability worked out at 0.473 in experiment [3] (first compound 0.4 µM); 0.372 in experiment [3] (first compound 1.265 µM); 0.26 in experiment [3] (first compound 4 µM); 1.07 in experiment [4] (first compound 0.04 µM); 0.6 in experiment [4] (first compound 0.1265 µM); 0.99 in experiment [4] (first compound 0.4 µM). Besides, the relative viability in experiment [4] (first compound 1.265 µM) is 0.619; in experiment [4] (first compound 4 µM) it was 0.448.
